Laboratory results published in US20170065533A1 (YISSUM RESEARCH DEVELOPMENT COMPANY OF THE HEBREW …, priority 2011, published 2017).

Key:
[1] = 50 mg/day over one year, cited from earlier work
[2] = cited from earlier work
[3] = cited from earlier work; remark: listed apart in the source
[4] = Conjugation efficiency of MAbs to NPs (BCA assay); assay type: physicochemical; settings: INPs conjugated to MAbs
Procedure: The conjugation efficiency of the macromolecules such as MAbs was determined using the […] Bicinchoninic acid assay (BCA) for protein quantification (Pierce, Ill., USA).

[5] = Particle size, PDI and zeta potential of nanocarriers; assay type: physicochemical; settings: INPs conjugated to MAbs
Procedure: mean diameter and particle size distribution measurements were carried out utilizing an ALV Noninvasive Back Scattering High Performance Particle Sizer (ALV-NIBS HPPS, Langen, Germany) at 25° C. and using water as diluent.
the zeta potential of the NPs was measured using the Malvern zetasizer (Malvern, UK) diluted in HPLC grade water.
The size and zeta potential of the various NPs were measured in water using a DTS zetasizer (Malvern, UK).
The mean diameter and the zeta potential of NCs were characterized using Malvern's Zetasizer (Nano series, Nanos-ZS, UK) at 25° C. and using water as diluent.
Mean diameter and zeta potential of the NCs were characterized using Malvern's Zetasizer (Nano ZSP) at 25° C. For the sample preparation, 200 mg of the anhydrous semi-solid preparation were dissolved in 2 mL HPLC water. The sample was vortexed and further centrifuged (4000 rpm, 10 min). Then, 1.2 mL of the supernatant was collected and centrifuged again (14000 rpm, 10 min). Finally, 1 mL of the obtained supernatant was collected and evaluated.

Molecule	skin status (hydration, epidermal thickness, sebum production, pigmentation) ([1]; aged 60 years and over)	harmful consequences [1]	maximum solubility in mid chain triglycerides [2]	expression of procollagen alpha1 (I) mRNA and protein ([3]; DHEA (5%) in ethanol:olive oil (1:2), 12 times over 4 weeks, aged and young skin)	basal expression of MMP-1 mRNA and protein ([3]; DHEA (5%) topical, 12 times over 4 weeks)	expression of TIMP-1 protein ([3]; DHEA (5%) topical, aged skin)	Conjugation [4]	Size [5]
C[C@]12CC[C@H](O)CC1=CC[C@@H]1[C@@H]2CC[C@]2(C)C(=O)CC[C@@H]12 [DHEA, dehydroepiandrosterone]	improvement of the skin status	no harmful consequences	1.77%	significantly increase	significantly decreased	increased		
rituximab immunonanoparticles: thiolated PEG-PLGA50,000/PLGA48,000 nanoparticles surface-conjugated to rituximab MAb							86.7%	73.75 nm
